The values below come from patent US20250019398A1, “NONAMERIC PEPTIDE HAVING EXCELLENT ANTIBACTERIAL ACTIVITY AGAINST GRAM-NEGATIVE BACTERIA AND ENANTIOMER THEREOF” (priority 2021, published 2025).

Converted amounts (≈) assume the structure as drawn. Where two headings read alike, the source gives them in different places.

In assay [1] the test system is Escherichia coli KCTC 1682. The experiment in a line: MIC, broth dilution. To be noted: standard Gram-negative bacteria, 16 hours, read-out: Minimal inhibitory concentration (MIC), E. coli. Type of assay: cell-based. An excerpt: (§1) In addition, carbapenem-resistant E. coli NCCP16044 and carbapenem-resistant Klebsiella pneumonia NCCP 15782 were obtained from the NCCP, and three types of carbapenem-resistant A. baumanii CCARM 12004-6 were obtained from the Culture Collection of Antimicrobial Resistance Microbes (CCARM) (Cheongju City, Korea). The E. coli K1 (ATCC700973) strain used in the animal experiments was obtained from the American Type Culture Collection (ATCC) ([…]).
(§2) The antimicrobial activities of the peptides were measured by a minimal inhibitory concentration (MIC) analysis. The MIC was determined using a broth dilution method. All bacterial strains were grown overnight at 37° C. in a Muller-Hinton (MH) medium.
On the technique in general: In broth dilution the organism is exposed to a series of concentrations in liquid medium.

Assay [2] has as its system carbapenem-resistant E. coli NCCP16044 (CREC 16044). The experiment in a line: microbe, parasite or virus in culture. The note with it: 16 hours, read-out: Minimal inhibitory concentration (MIC), CREC 16044. The class given is cell-based.
Source text: as §1, with “Among the bacterial strains used in the experiment, Escherichia coli KCTC 1682 was obtained from the Korean Collection for Type Cultures (KCTC) (Jeongeup, Korea), Acinetobacter baumannii KCCM 40203 and Pseudomonas aeruginosa KCCM 11328 were obtained from the Korean Culture Center of Microorganisms (KCCM) (Seoul, Korea), and Klebsiella pneumonia NCCP 16054 was obtained from the National Culture Collection for Pathogens (NCCP) (Osong, Korea). In” for “In”
as §2

Assay [3] concerns intact CRAB bacteria. Description: diSC3-5 membrane depolarization. The class given is cell-based, A. baumannii. To be noted: 4 μM. On the procedure:
Depolarization ability by peptides was measured using a membrane potential-sensitive dye 3,3′-dipropylthiadicarbocyanine iodide (diSC3-5) using intact CRAB bacteria. CRAB cells were washed using a wash buffer (5 mM HEPES, 20 mM glucose, pH 7.4). The cells were resuspended in a dilution buffer (5 mM HEPES, 20 mM glucose, 0.1 M KCl, pH 7.4) and then cultured with a diSC3-5 dye (1 hour). Finally, the fluorescence changes of cells treated with various concentrations of peptides, a negative control (cells with dye) and a positive control (1% Triton X-100) were recorded using a fluorescence spectrophotometer, and the results are expressed as percent depolarization.

Assay [4] concerns carbapenem-resistant Klebsiella pneumonia NCCP 15782 (CRKP 15782). Description: MIC, broth dilution. The note with it: 16 hours. The class given is cell-based.
Source text: as §1, with “Among the bacterial strains used in the experiment, Escherichia coli KCTC 1682 was obtained from the Korean Collection for Type Cultures (KCTC) (Jeongeup, Korea), Acinetobacter baumannii KCCM 40203 and Pseudomonas aeruginosa KCCM 11328 were obtained from the Korean Culture Center of Microorganisms (KCCM) (Seoul, Korea), and Klebsiella pneumonia NCCP 16054 was obtained from the National Culture Collection for Pathogens (NCCP) (Osong, Korea). In” for “In”
as §2

Assay [5] has as its system Klebsiella pneumonia NCCP 16054. The experiment in a line: MIC, broth dilution. The class given is cell-based. The note with it: standard Gram-negative bacteria, 16 hours.
Source text: as §1, with “Among the bacterial strains used in the experiment, Escherichia coli KCTC 1682 was obtained from the Korean Collection for Type Cultures (KCTC) (Jeongeup, Korea), Acinetobacter baumannii KCCM 40203 and Pseudomonas aeruginosa KCCM 11328 were obtained from the Korean Culture Center of Microorganisms (KCCM) (Seoul, Korea), and Klebsiella pneumonia NCCP 16054 was obtained from the National Culture Collection for Pathogens (NCCP) (Osong, Korea). In” for “In”
as §2

In assay [6] the test system is Acinetobacter baumannii KCCM 40203. The experiment in a line: MIC, broth dilution. Type of assay: cell-based. To be noted: standard Gram-negative bacteria, 16 hours.
Source text: as §1, with “Among the bacterial strains used in the experiment, Escherichia coli KCTC 1682 was obtained from the Korean Collection for Type Cultures (KCTC) (Jeongeup, Korea), Acinetobacter baumannii KCCM 40203 and Pseudomonas aeruginosa KCCM 11328 were obtained from the Korean Culture Center of Microorganisms (KCCM) (Seoul, Korea), and Klebsiella pneumonia NCCP 16054 was obtained from the National Culture Collection for Pathogens (NCCP) (Osong, Korea). In” for “In”
as §2

Assay [7] relates to Pseudomonas aeruginosa KCCM 11328. Description: MIC, broth dilution. Type of assay: cell-based. The note with it: standard Gram-negative bacteria, 16 hours.
Source text: as §1, with “Among the bacterial strains used in the experiment, Escherichia coli KCTC 1682 was obtained from the Korean Collection for Type Cultures (KCTC) (Jeongeup, Korea), Acinetobacter baumannii KCCM 40203 and Pseudomonas aeruginosa KCCM 11328 were obtained from the Korean Culture Center of Microorganisms (KCCM) (Seoul, Korea), and Klebsiella pneumonia NCCP 16054 was obtained from the National Culture Collection for Pathogens (NCCP) (Osong, Korea). In” for “In”
as §2

Assay [8] has as its system CRAB 12005 (carbapenem-resistant A. baumanii CCARM). The experiment in a line: MIC, broth dilution. Type of assay: cell-based, A. baumannii. To be noted: 16 hours, read-out: Minimal inhibitory concentration (MIC), CRAB 12005.
Source text: as §1, with “Among the bacterial strains used in the experiment, Escherichia coli KCTC 1682 was obtained from the Korean Collection for Type Cultures (KCTC) (Jeongeup, Korea), Acinetobacter baumannii KCCM 40203 and Pseudomonas aeruginosa KCCM 11328 were obtained from the Korean Culture Center of Microorganisms (KCCM) (Seoul, Korea), and Klebsiella pneumonia NCCP 16054 was obtained from the National Culture Collection for Pathogens (NCCP) (Osong, Korea). In” for “In”
as §2

In assay [9] the test system is CRAB 12004 (carbapenem-resistant A. baumanii CCARM). The experiment in a line: MIC, broth dilution. The class given is cell-based, A. baumannii. To be noted: 16 hours, read-out: Minimal inhibitory concentration (MIC), CRAB 12004.
Source text: as §1, with “Among the bacterial strains used in the experiment, Escherichia coli KCTC 1682 was obtained from the Korean Collection for Type Cultures (KCTC) (Jeongeup, Korea), Acinetobacter baumannii KCCM 40203 and Pseudomonas aeruginosa KCCM 11328 were obtained from the Korean Culture Center of Microorganisms (KCCM) (Seoul, Korea), and Klebsiella pneumonia NCCP 16054 was obtained from the National Culture Collection for Pathogens (NCCP) (Osong, Korea). In” for “In”
as §2

Assay [10] deals with CRAB 12006 (carbapenem-resistant A. baumanii CCARM). The experiment in a line: MIC, broth dilution. Type of assay: cell-based, A. baumannii. To be noted: 16 hours, read-out: Minimal inhibitory concentration (MIC), CRAB 12006.
Source text: as §1, with “Among the bacterial strains used in the experiment, Escherichia coli KCTC 1682 was obtained from the Korean Collection for Type Cultures (KCTC) (Jeongeup, Korea), Acinetobacter baumannii KCCM 40203 and Pseudomonas aeruginosa KCCM 11328 were obtained from the Korean Culture Center of Microorganisms (KCCM) (Seoul, Korea), and Klebsiella pneumonia NCCP 16054 was obtained from the National Culture Collection for Pathogens (NCCP) (Osong, Korea). In” for “In”
as §2

Assay [11] concerns CRAB 12006. The experiment in a line: Crystal violet biofilm inhibition. Type of assay: cell-based, A. baumannii. To be noted: 0-32 μM, 16 h. On the procedure: A crystal-violet-based assay was used to investigate the biofilm inhibition ability of R-Pro9-3D against A. baumannii standard bacteria and a CRAB 12006 line. […] Thereafter, bacterial cells were fixed with methanol (100%, 15 minutes) and then stained with crystal violet (0.1% (w/v) in 0.25% (v/v) acetic acid for 1 hour). The plate was washed with distilled H2O, dried and dissolved in ethanol (100% v/v). Color development, which indicates the extent of biofilm, was measured at 595 nm and expressed as biofilm formation percentage.

Regarding `CC[C@H](C)[C@H](NC(=O)CN)C(=O)NCC(=O)N[C@@H](C)C(=O)N[C@H](C(=O)N[C@@H](CC(C)C)C(=O)N[C@@H](CCCCN)C(=O)N[C@H](C(=O)N[C@@H](CC(C)C)C(=O)N[C@H](C(=O)N[C@H](C(=O)NCC(=O)N[C@@H](CC(C)C)C(=O)N1CCC[C@H]1C(=O)N[C@@H](C)C(=O)N[C@@H](CC(C)C)C(=O)N[C@H](C(=O)N[C@@H](CO)C(=O)N[C@@H](Cc1c[nH]c2ccccc12)C(=O)N[C@H](C(=O)N[C@@H](CCCCN)C(=O)N[C@@H](CCCNC(=N)N)C(=O)N[C@@H](CCCCN)C(=O)N[C@@H](CCCNC(=N)N)C(=O)N[C@@H](CCC(N)=O)C(=O)N[C@@H](CCC(N)=O)C(N)=O)[C@@H](C)CC)[C@@H](C)CC)[C@@H](C)O)[C@@H](C)O)C(C)C)C(C)C` [Melittin], the MIC in assay [1] was 8 µM (≈ 22.8 µg/mL); in assay [2] it was 8 µM (≈ 22.8 µg/mL); in assay [8] it was 4 µM (≈ 11.4 µg/mL); in [9], 4 µM (≈ 11.4 µg/mL); in [10], 4 µM (≈ 11.4 µg/mL). This compound also came in with a Depolarization in assay [3] of 75.6%. Besides, the “Minimal inhibitory concentration (MIC), CRKP 15782” value in assay [4] was 32 µM (≈ 91.1 µg/mL). Moreover, the “Minimal inhibitory concentration (MIC), K. pneumonia” value in assay [5] was determined as 32 µM (≈ 91.1 µg/mL). The “Minimal inhibitory concentration (MIC), A. baumannii” value in [6] was determined as 4 µM (≈ 11.4 µg/mL). Also, in [7], the “Minimal inhibitory concentration (MIC), P. aeruginosa” value was found to be 16 µM (≈ 45.5 µg/mL).

With `C[C@@H](O)[C@H]1C(=O)N2C(C(=O)O)=C(S[C@@H]3CN[C@H](C(=O)N(C)C)C3)[C@H](C)[C@H]12` [Meropenem], the MIC in assay [1] (Escherichia coli, KCTC1682) was found to be 0.25 µM (≈ 0.0959 µg/mL); in assay [2] (Escherichia coli), 8 µM (≈ 3.07 µg/mL). In addition, in assay [11], the “Biofilm formation inhibition, CRAB 12006” value is “remarkably lower”.
